The experiment deals with HCV replicon RNA, genotype 1a (Huh-1a7 replicon cell line). In words: HCV Replicon Assay - qRT-PCR, genotype 1a replicon. Format: cell-based, HCV (strain H77. The following applies: Hepatitis C virus; HCV genotype 1a replicon, HCV RNA by qRT-PCR normalized to GAPDH RNA. The text has this:
HCV replicon cell lines (kindly provided by R. Bartenschlager) isolated from colonies as described by Lohman et al. (Lohman et al. (1999) Science 285: 110-113, expressly incorporated by reference in its entirety) and used for all experiments. One of the HCV replicon cell lines (strain Conl, genotype 1b) has the nucleic acid sequence set forth in EMBL Accession No.: AJ242651, the coding sequence of which is from nucleotides 1801 to 8406. Another replicon cell line (strain H77, genotype 1a) was constructed as described by Yi et al. (Yi et al. (2004) Journal of Virology 78(15):7904-15). The coding sequences of the published HCV replicons were synthesized and subsequently assembled in plasmids using standard molecular biology techniques.
One replicon cell line (“SGR 11-7”) stably expresses HCV replicon RNA, genotype 1b, which consists of (i) the HCV 5′UTR fused to the first 12 amino acids of the capsid protein, (ii) the neomycin phosphotransferase gene (neo), (iii) the IRES from encephalomyocarditis virus (EMCV), and (iv) HCV NS2 to NS5B genes and the HCV 3′UTR. Another replicon cell line (“Huh-1a7”) described by Yi et al. (Yi et al. (2004) Journal of Virology 78(15):7904-15, expressly incorporated by reference in its entirety) stably expresses HCV replicon RNA, genotype 1a, which consists of (i) the HCV 5′UTR fused to the first 12 amino acids of the capsid protein, (ii) the HIV tat protein, (iii) the neomycin phosphotransferase gene (neo), (iv) the IRES from encephalomyocarditis virus (EMCV), and (v) HCV NS3 to NS5B genes that harbor cell culture adaptive mutations (Q1067R, K1691R, S2204I) and the HCV 3′UTR. […]
EC50 values of single agent compounds were determined by HCV RNA detection using quantitative RT-PCR, according to the manufacturer's instructions, with a TAQMAN® One-Step RT-PCR Master Mix Reagents Kit (Cat# AB 4309169, Applied Biosystems) on an ABI Model 7500 thermocycler. EC50 values of combinations are similarly determined by HCV RNA detection using quantitative RT-PCR. The TAQMAN primers to use for detecting and quantifying HCV RNA obtained from Integrated DNA Technologies. HCV RNA is normalized to GAPDH RNA levels in drug-treated cells, which is detected and quantified using the Human GAPDH Endogenous Control Mix (Applied Biosystems, AB 4310884E). […] Chemical agent cytotoxicity is evaluated using an MTS assay according to the manufacturer's directions (Promega). […]
In general terms: Replicon systems follow genome replication, usually without infectious particles.
In general, EC50 refers to the midpoint of the concentration-response curve. As for `[2H]C([2H])(O[P@@](=O)(N[C@@H](C)C(=O)OC(C)C)Oc1ccccc1)[C@@]1([2H])O[C@@H](n2ccc(=O)[nH]c2=O)[C@](C)(F)[C@@H]1O` [Example 4], the concentration giving a half-maximal response (EC50) was in the range of 0.1 to 1 µM. Take `[2H][C@@]1(O)[C@@H](CO[P@@](=O)(N[C@@H](C)C(=O)OC(C)C)Oc2ccccc2)O[C@@H](n2ccc(=O)[nH]c2=O)[C@]1(C)F` [Example 1]: the concentration for a half-maximal effect (EC50) fell in the range of 0.1 to 1 µM. For the compound `[2H]C([2H])(O[P@@](=O)(N[C@@H](C)C(=O)OC(C)C)Oc1ccccc1)[C@H]1O[C@@H](n2ccc(=O)[nH]c2=O)[C@](C)(F)[C@@H]1O` [Example 3], the concentration for a half-maximal effect (EC50) fell in the range of 0.1 to 1 µM. Next, `[2H][C@]1(CO[P@@](=O)(N[C@@H](C)C(=O)OC(C)C)Oc2ccccc2)O[C@@H](n2ccc(=O)[nH]c2=O)[C@](C)(F)[C@@H]1O` [Example 2]: 0.1 to 1 µM.

The record behind these values is patent US9718851B2, “Deuterated nucleoside/tide derivatives” (Enanta Pharmaceuticals, Inc., priority 2014, dated 2017).
